Reference: patent publication US20120214822A1 (ASTRAZENECA AB, priority 2007, published 2012)

Molecular target: human active recombinant p38α-6His tagged (Homo sapiens, UniProt Q16539)
Test: P38 Alpha Enzyme Assay (AlphaScreen, biotinylated-ATF2 substrate);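 also: 0.5 nM final p38α, reaction started with ATP and run 45 min at 37 °C, phospho-ATF2 read by antibody-based AlphaScreen, background wells quenched with EDTA before ATP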
Format: biochemical
Settings: p38 alpha enzyme inhibition; means of replicate determinations; 4 h pre-incubation at 37° C.; SD of assay 0.2-0.3 log units

human active recombinant p38α-6His tagged, sequence (Q16539 whole entry): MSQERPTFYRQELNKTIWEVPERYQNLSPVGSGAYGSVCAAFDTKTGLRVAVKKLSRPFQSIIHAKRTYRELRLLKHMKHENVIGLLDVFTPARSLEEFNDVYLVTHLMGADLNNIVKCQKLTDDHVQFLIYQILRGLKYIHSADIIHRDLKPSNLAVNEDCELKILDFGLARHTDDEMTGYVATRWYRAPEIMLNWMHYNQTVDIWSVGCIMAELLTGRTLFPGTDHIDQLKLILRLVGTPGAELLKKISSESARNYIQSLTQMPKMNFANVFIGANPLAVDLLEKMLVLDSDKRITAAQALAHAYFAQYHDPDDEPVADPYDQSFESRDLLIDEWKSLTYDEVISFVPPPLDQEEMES

Row | Structure (SMILES) | pIC50
1 | Cc1ccc(C(=O)NC2CC2)cc1-n1ccnc(NCc2cccc3c2OCCO3)c1=O [Example 91, N-Cyclopropyl-3-[3-[[(2,3-dihydro-1,4-benzodioxin-5-yl)methyl]amino]-2-oxo-1(2H)-pyrazinyl]-4-methyl-benzamide] | 7.9
2 | Cc1ccc(C(=O)NC2CC2)cc1-n1ccnc(NCC(C)(C)C)c1=O [Example 49, N-Cyclopropyl-3-[3-[(2,2-dimethylpropyl)amino]-2-oxo-1(2H)-pyrazinyl]-4-methyl-benzamide] | 6.9
3 | COC[C@@H]1CCCN1C[C@H](C)[C@@H](Nc1nccn(-c2cc(C(=O)NC3CC3)ccc2C)c1=O)c1ccccc1 [Example 149, N-Cyclopropyl-3-[3-[[(1R,2S)-3-[(2S)-2-(methoxymethyl)-1-pyrrolidinyl]-2-methyl-1-phenylpropyl]amino]-2-oxo-1(2H)-pyrazinyl]-4-methyl-benzamide] | 8.9
4 | Cc1ccc(C(=O)NC2CC2)cc1-n1ccnc(NC(CCO)c2ccccc2)c1=O (stereo not shown) [Example 83, N-Cyclopropyl-3-[3-[(3-hydroxy-1-phenylpropyl)amino]-2-oxo-1(2H)-pyrazinyl]-4-methyl-benzamide] | 7.7
5 | Cc1ccc(CCNc2nccn(-c3cc(C(=O)NC4CC4)ccc3C)c2=O)cc1 [Example 74, N-Cyclopropyl-4-methyl-3-[3-[[2-(4-methylphenyl)ethyl]amino]-2-oxo-1(2H)-pyrazinyl]-benzamide] | 6.7
6 | CC(=O)N1CCN(C[C@H](C)[C@@H](Nc2nccn(-c3cc(C(=O)NC4CC4)ccc3C)c2=O)c2ccccc2)CC1 [Example 140, 3-[3-[[(1R,2S)-3-(4-Acetyl-1-piperazinyl)-2-methyl-1-phenylpropyl]amino]-2-oxo-1(2H)-pyrazinyl]-N-cyclopropyl-4-methyl-benzamide] | 8.6
7 | Cc1ccc(C(=O)NC2CC2)cc1-n1ccnc(NCCCN2CCN(C)CC2)c1=O [Example 4, N-Cyclopropyl-4-methyl-3-[3-[[3-(4-methyl-1-piperazinyl)propyl]amino]-2-oxo-1(2H)-pyrazinyl]-benzamide] | 6.1
8 | Cc1ccc(C(=O)NC2CC2)cc1-n1ccnc(N[C@H]2C[C@@H]2c2ccccc2)c1=O [Example 47, N-Cyclopropyl-4-methyl-3-[2-oxo-3-[[(1S,2R)-2-phenylcyclopropyl]amino]-1(2H)-pyrazinyl]-benzamide] | 7.2
9 | Cc1ccc(C(=O)NC2CC2)cc1-n1ccnc(N[C@@H]2CCc3ccccc32)c1=O [Example 17, N-Cyclopropyl-3-[3-[[(1R)-2,3-dihydro-1H-inden-1-yl]amino]-2-oxo-1(2H)-pyrazinyl]-4-methyl-benzamide] | 6.6
10 | Cc1ccc(C(=O)NC2CC2)cc1-n1ccnc(N[C@H](C)c2cccc3ccccc23)c1=O [Example 84, N-Cyclopropyl-4-methyl-3-[3-[[(1R)-1-(1-naphthalenyl)ethyl]amino]-2-oxo-1(2H)-pyrazinyl]-benzamide] | 8.6
11 | Cc1ccc(C(=O)NC2CC2)cc1-n1ccnc(N[C@@H](c2ccccc2)[C@@H](C)CN2CCC[C@@H](O)C2)c1=O [Example 186, N-Cyclopropyl-3-[3-[[(1R,2S)-3-[(3R)-3-hydroxy-1-piperidinyl]-2-methyl-1-phenylpropyl]amino]-2-oxo-1(2H)-pyrazinyl]-4-methyl-benzamide] | 9
12 | Cc1ccc(C(=O)NC2CC2)cc1-n1ccnc(NCCc2ccccn2)c1=O [Example 9, N-Cyclopropyl-4-methyl-3-[2-oxo-3-[[2-(2-pyridinyl)ethyl]amino]-1(2H)-pyrazinyl]-benzamide] | 6.3
13 | Cc1ccc(C(=O)NC2CC2)cc1-n1cc(Br)nc(N2CCN(C)CC2c2ccccc2)c1=O (stereo not shown) [Example 120, 3-[5-bromo-3-(4-methyl-2-phenyl-1-piperazinyl)-2-oxo-1(2H)-pyrazinyl]-N-cyclopropyl-4-methyl-benzamide] | 6.4
14 | Cc1ccc(C(=O)NC2CC2)cc1-n1ccnc(N[C@@H](c2ccccc2)[C@@H](C)CN2CCC[C@H](O)C2)c1=O [Example 185, N-Cyclopropyl-3-[3-[[(1R,2S)-3-[(3S)-3-hydroxy-1-piperidinyl]-2-methyl-1-phenylpropyl]amino]-2-oxo-1(2H)-pyrazinyl]-4-methyl-benzamide] | 9.1
15 | Cc1ccc(C(=O)NC2CC2)cc1-n1cc(C#N)nc(NCc2ccccc2)c1=O [Example 104, 3-[5-Cyano-2-oxo-3-[(phenylmethyl)amino]-1(2H)-pyrazinyl]-N-cyclopropyl-4-methyl-benzamide] | 7.2

More lines, now with the values ahead:

Row | pIC50 | Structure (SMILES)
16 | 9.2 | Cc1ccc(C(=O)NC2CC2)cc1-n1ccnc(NC(C)(C)c2ccccc2OCCN2CCN(C)CC2)c1=O [Example 202, N-Cyclopropyl-4-methyl-3-[3-[[1-methyl-1-[2-[2-(4-methyl-1-piperazinyl)ethoxy]phenyl]ethyl]amino]-2-oxo-1(2H)-pyrazinyl]-benzamide]
17 | 9.7 | Cc1ccc(C(=O)NC2CC2)cc1-n1ccnc(NC2(c3ccccc3OCCNCC(C)(C)CO)CC2)c1=O [Example 242, N-Cyclopropyl-3-[3-[[1-[2-[2-[(3-hydroxy-2,2-dimethylpropyl)amino]ethoxy]phenyl]cyclopropyl]amino]-2-oxo-1(2H)-pyrazinyl]-4-methyl-benzamide]
18 | 9.3 | CNCCOc1c(F)cccc1C1(Nc2nccn(-c3cc(C(=O)NC4CC4)ccc3C)c2=O)CC1 [Example 287, N-Cyclopropyl-3-{3-[(1-{3-fluoro-2-[2-(methylamino)ethoxy]phenyl}cyclopropyl)amino]-2-oxopyrazin-1(2H)-yl}-4-methylbenzamide]
19 | 8.9 | Cc1ccc(C(=O)NC2CC2)cc1-n1ccnc(NC(C)(C)c2ccccc2OCCN2CCOCC2)c1=O [Example 203, N-Cyclopropyl-4-methyl-3-[3-[[1-methyl-1-[2-[2-(4-morpholinyl)ethoxy]phenyl]ethyl]amino]-2-oxo-1(2H)-pyrazinyl]-benzamide]
20 | 6.7 | CNCCOc1ccccc1C(C)(C)Nc1nccn(-c2cc(C(=O)N3CCC3)ccc2C)c1=O [Example 221, 1-[4-Methyl-3-[3-[[1-methyl-1-[2-[2-(methylamino)ethoxy]phenyl]ethyl]amino]-2-oxo-1(2H)-pyrazinyl]benzoyl]-azetidine]
21 | 9.4 | CNCCOc1ccccc1C(C)(C)Nc1nccn(-c2cc(C(=O)NC3CC3)ccc2Cl)c1=O [Example 330, 4-Chloro-N-cyclopropyl-3-[3-[(1-methyl-1-{2-[2-(methylamino)ethoxy]phenyl}ethyl)amino]-2-oxopyrazin-1(2H)-yl]benzamide]
22 | 10.3 | CNC[C@@H](O)COc1ccccc1C(C)(C)Nc1nccn(-c2cc(C(=O)NC3CC3)cc(F)c2C)c1=O [Example 307, N-Cyclopropyl-3-fluoro-5-[3-{[1-(2-{[(2R)-2-hydroxy-3-(methylamino)propyl]oxy}phenyl)-1-methylethyl]amino}-2-oxopyrazin-1(2H)-yl]-4-methylbenzamide]
23 | 10.1 | Cc1ccc(C(=O)NC2CC2)cc1-n1ccnc(NC2(c3ccccc3OCCN)CC2)c1=O [Example 251, 3-[3-[[1-[2-(2-aminoethoxy)phenyl]cyclopropyl]amino]-2-oxo-1(2H)-pyrazinyl]-N-cyclopropyl-4-methyl-benzamide]
24 | 8.1 | CNCCOc1ccccc1C(C)(C)Nc1nccn(-c2cc(C(=O)NC(C)C)ccc2C)c1=O [Example 223, 4-Methyl-N-(1-methylethyl)-3-[3-[[1-methyl-1-[2-[2-(methylamino)ethoxy]phenyl]ethyl]amino]-2-oxo-1(2H)-pyrazinyl]-benzamide]
25 | 8.8 | Cc1cccc([C@H](Nc2nccn(-c3cc(C(=O)NC4CC4)ccc3C)c2=O)[C@@H](C)CN2CCCC2)c1 [Example 276, N-Cyclopropyl-3-[3-[[(1R,2S)-1-(3-methylphenyl)-2-methyl-3-(1-pyrrolidinyl)propyl]amino]-2-oxo-1(2H)-pyrazinyl]-4-methyl-benzamide]
26 | 10 | Cc1ccc(C(=O)NC2CC2)cc1-n1ccnc(NC2(c3ccccc3OCCN3CC[C@@H](O)C3)CC2)c1=O [Example 236, N-Cyclopropyl-3-[3-[[1-[2-[2-[(3R)-3-hydroxy-1-pyrrolidinyl]ethoxy]phenyl]cyclopropyl]amino]-2-oxo-1(2H)-pyrazinyl]-4-methyl-benzamide]
27 | 10 | Cc1ccc(C(=O)NC2CC2)cc1-n1ccnc(NC2(c3ccccc3OCCNC(CO)CO)CC2)c1=O [Example 294, N-Cyclopropyl-3-[3-({1-[2-(2-{[2-hydroxy-1-(hydroxymethyl)ethyl]amino}ethoxy)phenyl]cyclopropyl}amino)-2-oxopyrazin-1(2H)-yl]-4-methylbenzamide]
28 | 9.9 | Cc1ccc(C(=O)NC2CC2)cc1-n1ccnc(NC2(c3ccccc3OCCNCCO)CCC2)c1=O [Example 270, N-Cyclopropyl-3-[3-[[1-[2-[2-[(2-hydroxyethyl)amino]ethoxy]phenyl]cyclobutyl]amino]-2-oxo-1(2H)-pyrazinyl]-4-methyl-benzamide]
29 | 9.1 | Cc1ccc(C(=O)NC2CC2)cc1-n1ccnc(N[C@@H](c2ccccc2)[C@@H](C)CN2C[C@@H](C)N[C@@H](C)C2)c1=O [Example 194, N-Cyclopropyl-3-[3-[[(1R,2S)-3-[(3R,5S)-3,5-dimethyl-1-piperazinyl]-2-methyl-1-phenylpropyl]amino]-2-oxo-1(2H)-pyrazinyl]-4-methyl-benzamide]
30 | 9.9 | Cc1ccc(C(=O)NC2CC2)cc1-n1ccnc(NC2(c3ccccc3OCCN[C@H](C)CO)CC2)c1=O [Example 249, N-Cyclopropyl-3-[3-[[1-[2-[2-[[(1R)-2-hydroxy-1-methylethyl]amino]ethoxy]phenyl]cyclopropyl]amino]-2-oxo-1(2H)-pyrazinyl]-4-methyl-benzamide]
31 | 8.2 | CCNCCOc1ccccc1C1(Nc2nccn(-c3cc(C(=O)NC4CC4)c(F)cc3C)c2=O)CC1 [Example 318, N-cyclopropyl-5-{3-[(1-{2-[2-(ethylamino)ethoxy]phenyl}cyclopropyl)amino]-2-oxopyrazin-1(2H)-yl}-2-fluoro-4-methylbenzamide]
